Series [1] has as its target T1, BceAB (isolated transporter) (Bacillus subtilis, UniProt O34697).
T1 construct: gene bceA
The conditions noted are these: MgCl2, 37 °C, 30 min, detergent solubilized.

In series [2] the target is T2, BceAB-S complex (Bacillus subtilis, UniProt O34697). The arrangement: gene bceA. The conditions noted are these: MgCl2, 37 °C, 30 min, detergent solubilized.
The target in series [3] is T2, BceAB-S complex. In words: cryo-EM structure of the complex. The conditions noted are these: 5 mM ATPγS, 5 mM MgCl2, LMNG; bound at Walker A motif and Tyr13 of BceA. The arrangement: gene bceA; full-length; petDUET-1, E. coli C41(DE3); LMNG-solubilized; BceA:B:S 2:1:2; with Bacitracin export permease protein BceB; Sensor protein BceS. Type of series: binding.
The target of series [4] is T3, BceAB ABC transporter (BceA2:BceB1) (B. subtilis, UniProt O34697 2-253; O34741 1-646).
T3 construct: BceA of Bacillus subtilis, as m1; BceB of Bacillus subtilis, as m2; The construct for isolated BceAB (without BceS) is not described here; also called BceAB transporter; isolated BceAB; source: E. coli C41(DE3), co-expressed (with or without BceS), purified (LMNG, Co3+-Talon, Superdex 200); not shown: His6, N-terminal, kept; copies: 2 + 1
T3 sequence 1: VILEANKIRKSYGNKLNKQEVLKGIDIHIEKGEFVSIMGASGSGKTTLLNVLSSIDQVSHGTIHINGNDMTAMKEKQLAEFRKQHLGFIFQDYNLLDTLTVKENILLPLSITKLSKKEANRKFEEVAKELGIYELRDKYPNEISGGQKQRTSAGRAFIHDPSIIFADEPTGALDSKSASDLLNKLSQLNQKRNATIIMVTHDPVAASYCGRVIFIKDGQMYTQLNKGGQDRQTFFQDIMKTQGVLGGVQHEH
T3 sequence 2: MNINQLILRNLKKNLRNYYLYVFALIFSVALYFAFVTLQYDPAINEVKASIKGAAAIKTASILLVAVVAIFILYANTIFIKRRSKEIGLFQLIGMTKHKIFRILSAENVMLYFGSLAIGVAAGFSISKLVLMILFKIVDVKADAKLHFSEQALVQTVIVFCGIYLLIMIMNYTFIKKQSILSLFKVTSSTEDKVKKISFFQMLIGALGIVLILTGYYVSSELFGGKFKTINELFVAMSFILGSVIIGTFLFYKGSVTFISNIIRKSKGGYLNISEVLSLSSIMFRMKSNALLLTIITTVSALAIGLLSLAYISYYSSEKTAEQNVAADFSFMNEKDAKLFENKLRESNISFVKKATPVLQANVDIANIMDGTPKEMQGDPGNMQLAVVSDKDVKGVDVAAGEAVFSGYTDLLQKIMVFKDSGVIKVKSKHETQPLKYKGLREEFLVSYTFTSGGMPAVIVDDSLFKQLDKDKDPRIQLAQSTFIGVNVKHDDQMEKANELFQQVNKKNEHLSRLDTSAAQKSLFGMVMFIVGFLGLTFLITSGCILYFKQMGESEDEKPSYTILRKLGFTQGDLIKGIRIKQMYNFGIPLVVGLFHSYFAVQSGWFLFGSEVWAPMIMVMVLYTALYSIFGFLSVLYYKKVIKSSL
In words: cryo-EM structure; nucleotide-free BceAB-S, co-expressed and co-purified complex in LMNG at ~7 mg/mL; Titan Krios, K3. The conditions noted are these: both partners purified.

Series [5] concerns the molecule itself. Described as above.
Series [6] deals with the molecule itself. In words: cryo-EM structure; BceAB-S, co-expressed and co-purified complex in LMNG, incubated on ice with 5 mM ATPγS and 5 mM MgCl2 for 30 min before freezing.

T2 sequence (O34697 whole entry, one chain of several): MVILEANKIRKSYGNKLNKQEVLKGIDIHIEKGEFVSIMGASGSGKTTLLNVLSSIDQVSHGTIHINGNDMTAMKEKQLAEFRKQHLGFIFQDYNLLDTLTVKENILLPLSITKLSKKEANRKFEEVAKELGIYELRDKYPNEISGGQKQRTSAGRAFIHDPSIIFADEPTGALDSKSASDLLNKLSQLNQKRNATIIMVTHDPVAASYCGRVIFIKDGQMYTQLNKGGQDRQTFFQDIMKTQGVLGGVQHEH
T1 sequence (O34697 whole entry, one chain of several): as above

For the molecule `Nc1ncnc2c1ncn2[C@@H]1O[C@H](COP(=O)(O)OP(=O)(O)OP(=O)(O)O)[C@@H](O)[C@H]1O` [ATP], the “colorimetric phosphate-release ATPase assay” value in series [1] was “significantly reduced maximal ATPase activity compared to the isolated BceAB transporter”; in series [2] it was “The BceAB-S complex displayed significantly reduced maximal ATPase activity”. Take `Nc1ncnc2c1ncn2[C@@H]1O[C@H](COP(=O)(O)OP(=O)(O)OP(O)(O)=S)[C@@H](O)[C@H]1O` [ATPγS]: in series [3], the “cryo-EM structure of the complex” value was “ATPγS engages the Walker-A motif and Tyr13 in the A-loop of BceA”.

B1: BceS sensor histidine kinase (natural protein, B. subtilis, UniProt O35044 1-334, looked up)
chain: MIKAFLIERRSWIAAFLFQQALMLFIAFVDPSISFGNVLYMVYLCILFFIIFLWFRYRKETAFYKSLKTWENNLDVTAINEPETPFEAMVERSIAGQTEHLKQTAARHRLALENEKDELMAWIHEVKTPLTAMHLIIDRMEEKALKSQLSYEWLRIHLLLDQQLHQKRISFIENDLSVEFIQLQPLIFKEIKDLQSWCIQKGIGFDIQLEAKEVLSDAKWLAFIIRQLLTNAVKYSEASEIEIKSFQKGEQTQLQVKDCGRGIDPKDVPRIFDKGFTSTTDHHDQASTGMGLYLAKKAAAPLLIHIDVESEFGAGTVFTLTFPIRNQFEHVISV
notes: BceS of Bacillus subtilis; gene PCR amplified from B. subtilis genomic DNA; Dimer in the BceAB-S complex; also called BceS kinase; BceS dimer
For B1, the “stoichiometry N” value in series [4] is 2 BceS per BceAB (BceA2:BceB1); in series [5], 2.

B2: BceA, ATPase (nucleotide binding domain) subunit of the ABC transporter BceAB (natural protein, B. subtilis)
chain: VILEANKIRKSYGNKLNKQEVLKGIDIHIEKGEFVSIMGASGSGKTTLLNVLSSIDQVSHGTIHINGNDMTAMKEKQLAEFRKQHLGFIFQDYNLLDTLTVKENILLPLSITKLSKKEANRKFEEVAKELGIYELRDKYPNEISGGQKQRTSAGRAFIHDPSIIFADEPTGALDSKSASDLLNKLSQLNQKRNATIIMVTHDPVAASYCGRVIFIKDGQMYTQLNKGGQDRQTFFQDIMKTQGVLGGVQHEH
notes: BceA of Bacillus subtilis; gene PCR amplified from B. subtilis genomic DNA together with the overlapping bceB gene; Two copies of BceA stand in the BceAB-S complex (BceA:B:S 2:1:2); No cleavage of the His tag is told; also called BceA NBDs; BceA subunits; not shown: His6, N-terminal, kept
B2: the binding result in series [6] is “binds”.

The values are drawn from publication PMC10314905, “Architecture of a complete Bce-type antimicrobial peptide resistance module” (Nature Communications, 2023).
